From patent US8313729B2, “Integrated photoactive small molecules and uses thereof” (Medibeacon, LLC, priority 2007, dated 2012)

Legend:
UV/vis absorption in PBS = type: physicochemical; settings: 100 μM in PBS
[1] = Fluorescence excitation and emission; type: physicochemical

Row | UV/vis λabs (UV/vis absorption in PBS) [nm] | Fluorescence λem ([1]; 100 nM) [nm] | Fluorescence λex ([1]; 100 nM) [nm] | Fluorescence λem ([1]; concentration not given) [nm] | Fluorescence λex ([1]; concentration not given) [nm] | SMILES
1 | 437 | 554 | 428 |  |  | N=C(N)c1ccc(CNC(=O)c2nc(N)c(C(=O)NCc3ccc(C(=N)N)cc3)nc2N)cc1 [Example 1, 3,6-diamino-N2,N5-bis(4-carbamimidoylbenzyl)pyrazine-2,5-dicarboxamide]
2 | 434 |  |  | 559 | 449 | Nc1nc(C(=O)NCC(O)CO)c(N)nc1C(=O)NCC(O)CO (stereo not drawn) [Example 3, 3,6-diamino-N^2,N^5-bis(2,3-dihydroxypropyl)pyrazine-2,5-dicarboxamide]
3 | 432 |  |  | 558 | 432 | Nc1nc(C(=O)N[C@@H](CO)C(=O)O)c(N)nc1C(=O)N[C@@H](CO)C(=O)O [Example 4, 3,6-Diamino-N^2,N^5-bis(serine)-pyrazine-2,5-dicarboxamide]
